The values below come from ChEMBL document CHEMBL1201862, “PubChem BioAssay data set” (2004).

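How tested: cells in 96-well plates exposed to compound for 48 hours at five concentrations. GI50 = concentration required for 50% inhibition of growth.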 Calls of active or inactive are those of the source. Cut-off read from the data, not from the text of the source: active = GI50 up to about 1.1 µM and inactive = higher.

Experiment in all cases: DTP human tumour cell line panel, 48 h
For experiment [1], the system named is HOP-92.
Experiment [2] has as its system SNB-19.
Experiment [3] deals with SF-539.
The test system of experiment [4] is NCI-H522.
In experiment [5] the test system is HL-60.
The test system of experiment [6] is OVCAR-8.
The test system of experiment [7] is HOP-62.
In experiment [8] the test system is NCI-H460.
The test system of experiment [9] is OVCAR-4.
Experiment [10] has as its system RXF 393.
Experiment [11] concerns SW-620.
The test system of experiment [12] is BT-549.
The test system of experiment [13] is Malme-3M.
The subject of experiment [14] is A549.
The subject of experiment [15] is KM12.
Experiment [16] deals with M14.
The subject of experiment [17] is SF-295.
The test system of experiment [18] is DU-145.
The subject of experiment [19] is UO-31.
Experiment [20] deals with SNB-75.

A word on the GI50: it is the concentration that inhibits growth by half. `CCOC(=O)/C=C(\C(=O)OCC)n1ccc(=O)n(Cc2cn(COCCOC(C)=O)nn2)c1=O`: the GI50 in experiment [1] is 19 µM (inactive); in [2], > 50.4 µM (inactive); in experiment [3] it was 20.1 µM (inactive); in [4] it was 2.71 µM (inactive); in experiment [5] it was 12.7 µM (inactive); in [6], 16.3 µM (inactive). In addition, the GI50 was 98.6 µM (inactive) in experiment [7]; > 38.1 µM (inactive) in experiment [8]; 19.5 µM (inactive) in experiment [9]; 15.7 µM (inactive) in [10]; 9.18 µM (inactive) in experiment [11]; 17.8 µM (inactive) in [12]. Besides, the GI50 is 15.2 µM (inactive) in experiment [13]; > 76.4 µM (inactive) in experiment [14]; 29.6 µM (inactive) in experiment [15]; 39.8 µM (inactive) in experiment [16]; > 100 µM (inactive) in experiment [17]; 38.8 µM (inactive) in experiment [18]. Besides, the figures for the GI50 in experiment [19] and in experiment [20] were 17.7 µM (inactive) and > 42.7 µM (inactive), respectively.
On to `COc1cc2ccc(C(C)NCC#N)cc2cc1OC` (stereo not given), for which the GI50 in experiment [1] was > 100 µM (inactive); in [2], > 100 µM (inactive); in experiment [3] it was > 100 µM (inactive); in experiment [4] it was > 100 µM (inactive); in experiment [5], 46.5 µM (inactive); in [6], > 100 µM (inactive). Moreover, the GI50 in [7], in experiment [8], in experiment [9], in [10], in [11] and in experiment [12] was > 100 µM (inactive) in each case. The GI50 in [13], in experiment [14], in experiment [15], in [16], in [17] and in experiment [18] was > 100 µM (inactive) in each case. In addition, the GI50 in experiment [19] and in experiment [20] was > 100 µM (inactive) in each case.
Take `O=C1c2ccccc2C(=O)c2c1oc(=O)c1ccccc21`: the GI50 in experiment [1] is 5.16 µM (inactive); in experiment [2], 8.75 µM (inactive); in experiment [3] it was 10.7 µM (inactive); in [4], 4.07 µM (inactive); in [5], 0.664 µM (active); in [6], 2 µM (inactive). Besides, the GI50 in experiment [7] was 8.13 µM (inactive); in experiment [8] it was 4.38 µM (inactive); in experiment [9] it was 1.08 µM (active); in experiment [10], 4.48 µM (inactive); in experiment [11], 2.08 µM (inactive); in experiment [12], 4.51 µM (inactive). The GI50 in experiment [13] is 2.63 µM (inactive); in experiment [14], 7.46 µM (inactive); in experiment [15], 5.51 µM (inactive); in [16] it was 6.05 µM (inactive); in [17], 3.83 µM (inactive); in experiment [18], 5.46 µM (inactive). Moreover, the GI50 in [19] is 5.22 µM (inactive); in experiment [20], 5.24 µM (inactive).
Turning to `Ic1ccc2c(c1)N(c1ccccc1)c1cc([N-]c3ccc4nc5ccc(I)cc5[n+](-c5ccccc5)c4c3)ccc1N2`, the GI50 in experiment [1] is > 100 µM (inactive); in experiment [2], > 100 µM (inactive); in experiment [3], > 100 µM (inactive); in experiment [4], 22.8 µM (inactive); in experiment [5], 17.9 µM (inactive); in [6] it was > 100 µM (inactive). For the same compound, the GI50 in [7] was 41.3 µM (inactive); in [8], 42 µM (inactive); in [9], > 100 µM (inactive); in [10], > 100 µM (inactive); in experiment [11], 51.9 µM (inactive); in experiment [12], > 100 µM (inactive). In addition, the GI50 is 38 µM (inactive) in experiment [13]; > 100 µM (inactive) in experiment [14]; 44.2 µM (inactive) in experiment [15]; 26.9 µM (inactive) in [16]; > 100 µM (inactive) in experiment [17]; > 100 µM (inactive) in experiment [18]. Also, the GI50 in experiment [19] and in experiment [20] was > 100 µM (inactive) each time.
Consider `N=C(N)NS(=O)(=O)c1ccc(NC(=O)c2ccc3nc4ccccc4c(O)c3c2)cc1`, for which the GI50 in [1], in experiment [2], in [3], in [4], in experiment [5] and in experiment [6] was > 100 µM (inactive) in each case. For the same compound, the GI50 in [7], in [8], in experiment [9], in experiment [10], in experiment [11] and in experiment [12] was > 100 µM (inactive) throughout. The GI50 in [13], in experiment [14], in experiment [15], in [16], in experiment [17] and in experiment [18] was > 100 µM (inactive) in each case. The GI50 in experiment [19] and in [20] was > 100 µM (inactive) throughout.
Take `O=C(c1ccccc1Cl)n1oc2ccccc2c1=O`: the GI50 in experiment [1] is 25.2 µM (inactive); in [2], > 100 µM (inactive); in [3], 37.8 µM (inactive); in [4], 13.8 µM (inactive); in [5], 18 µM (inactive); in experiment [6], > 100 µM (inactive). Also, the GI50 in experiment [7] is > 100 µM (inactive); in experiment [8], > 100 µM (inactive); in experiment [9], > 100 µM (inactive); in experiment [10], 68.7 µM (inactive); in experiment [11], 57 µM (inactive); in experiment [12], 84.5 µM (inactive). For the same compound, the GI50 is > 100 µM (inactive) in [13]; > 100 µM (inactive) in experiment [14]; 84.1 µM (inactive) in experiment [15]; > 100 µM (inactive) in experiment [16]; > 100 µM (inactive) in [17]; > 100 µM (inactive) in experiment [18]. The values for the GI50 in experiment [19] and in [20] were > 100 µM (inactive) and 51.1 µM (inactive), respectively.
Regarding `C[Si](C)(C)C1=C([Si](C)(C)C)C(Cl)(Cl)C1=O`, the GI50 in experiment [1] was 2.04 µM (inactive); in [2] it was 16 µM (inactive); in experiment [3] it was 5.22 µM (inactive); in experiment [4], 1.27 µM (inactive); in [5], 0.217 µM (active); in experiment [6] it was 2.23 µM (inactive). The GI50 is 18.7 µM (inactive) in experiment [7]; 12.4 µM (inactive) in [8]; 3.28 µM (inactive) in [9]; 1.9 µM (inactive) in experiment [10]; 2.27 µM (inactive) in experiment [11]; 3.63 µM (inactive) in experiment [12]. Moreover, the GI50 was 1.75 µM (inactive) in experiment [13]; 19.8 µM (inactive) in experiment [14]; 6.17 µM (inactive) in experiment [15]; 2.65 µM (inactive) in experiment [16]; 9.1 µM (inactive) in experiment [17]; 10.4 µM (inactive) in experiment [18]. The GI50 in experiment [19] is 2.34 µM (inactive); in experiment [20], 8.77 µM (inactive).
Take `CC1(C)O[C@H]2OC3CCC(=O)CC3(O)[C@H]2O1` (stereo not given in full): the GI50 in experiment [1] is > 73.3 µM (inactive); in [2] it was > 100 µM (inactive); in [3], > 100 µM (inactive); in experiment [4] it was > 100 µM (inactive); in experiment [5], > 100 µM (inactive); in experiment [6], > 100 µM (inactive). Moreover, the GI50 in experiment [7], in experiment [8], in [9], in [10], in [11] and in experiment [12] was > 100 µM (inactive) throughout. Further, the GI50 was > 51.6 µM (inactive) in [13]; > 100 µM (inactive) in experiment [14]; > 100 µM (inactive) in [15]; > 100 µM (inactive) in [16]; > 100 µM (inactive) in [17]; > 100 µM (inactive) in [18]. For the same compound, the GI50 in experiment [19] and in experiment [20] was > 100 µM (inactive) throughout.
On to `Clc1ccccc1-c1nc(-c2ccncc2)no1` [PIFEXOLE], for which the GI50 in experiment [1] was > 100 µM (inactive); in experiment [2], 96.2 µM (inactive); in experiment [3] it was > 100 µM (inactive); in experiment [4], 25.8 µM (inactive); in experiment [5], 13.4 µM (inactive); in [6], 90.6 µM (inactive). The GI50 in experiment [7] was > 100 µM (inactive); in [8] it was 58.7 µM (inactive); in experiment [9], 59.8 µM (inactive); in experiment [10], 29.3 µM (inactive); in experiment [11], 52.7 µM (inactive); in [12], 42.3 µM (inactive). In addition, the GI50 is 75.3 µM (inactive) in [13]; 69 µM (inactive) in experiment [14]; > 100 µM (inactive) in [15]; 62.2 µM (inactive) in experiment [16]; 36.5 µM (inactive) in experiment [17]; 87.9 µM (inactive) in experiment [18]. In addition, the GI50 in experiment [19] is 47.4 µM (inactive); in [20] it was 89.3 µM (inactive).
